Paper PMC2885425, “Complete Phenotypic Recovery of an Alzheimer's Disease Model by a Quinone-Tryptophan Hybrid Aggregation Inhibitor” (PLoS ONE, 2010)

How the values were obtained:
[1] = target: T1, β-amyloid polypeptide (Aβ1–42) (Homo sapiens, UniProt P05067); assay: fluorescence anisotropy titration (Aβ[…] early assemblies); supported by 1H-NMR shift perturbation with Aβ[…] and ThT fibril inhibition (IC50 […]); type: binding
T1 construct: gene APP; Aβ1–42 (synthetic, early oligomeric assemblies); NMR with Aβ12–28
T1 sequence (P05067 672-713): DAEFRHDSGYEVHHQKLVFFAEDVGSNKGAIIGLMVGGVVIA

[2] = target: Arctic (Arc) (E22G) mutant form of Aβ1–42 (human); assay: immunoprecipitation with antibody 6E10 and western blot of SDS-stable oligomers; head extracts (PBS, protease inhibitor, 1% SDS) of 6 day old Aβarc1-42-expressing flies on regular food; samples boiled

Compound | Kd [1] | stoichiometry N [2]
O=C1C=C(N[C@@H](Cc2c[nH]c3ccccc23)C(=O)O)C(=O)c2ccccc21 [IL, 1,4-naphthoquinon-2-yl-L-tryptophan] | ~90 nM | –
Arctic (Arc) (E22G) mutant form of Aβ1–42 (peptide) | – | 4
